Consider seven compounds from article PMC10881971, “Hepa-ToxMOA: a pathway-screening method for evaluating cellular stress and hepatic metabolic-dependent toxicity of natural products” (Scientific Reports, 2024).

Where two headings read alike, the source gives them in different places.

In data set [1] the test system is NF-κB.
Data set [2] deals with AP1, P53, Nrf2, and NF-κB.
Data set [3] relates to AP1. The conditions noted are these: 24 h.
In data set [4] the test system is P53.
The subject of data set [5] is CYP3A4. The conditions noted are these: cited from earlier work.
Data set [6] relates to CYP3A5. Details: method as in doi:10.1016/j.ccr.2020.213600. The conditions noted are these: cited from earlier work.
In data set [7] the test system is Nrf2.
Setting [8] is: under metabolic activation (S9+, 1% rat liver S9).
[9] abbreviates: without metabolic activation (S9-).

Consider `CC[C@@]1(O)C(=O)OCc2c1cc1n(c2=O)Cc2cc3c(OC)cccc3nc2-1` [9-Methoxycamptothecin], for which, in data set [1] (regardless of metabolic activation (S9- and S9+), 24 h), the “GFP expression, NF-κB cell line” value was “increased GFP expression”.

On to `C[C@]12CC[C@H](O)C[C@H]1CC[C@@H]1[C@@H]2CC[C@]2(C)[C@@H](c3ccc(=O)oc3)CC[C@]12O` [Bufalin], for which the “sum of activity scores compared between metabolic activation and non-metabolic conditions” value in data set [2] is on record as “more active under metabolic activation”. The “Toxic (natural products exceeding Score 3, Venn diagram list Fig. 3c)” value (shortened to “Toxic”) in data set [2] (human) is “S9+ only”. Also, the results for the “GFP expression, AP1 cell line” value in data set [3] (setting [8]) and in data set [3] (setting [9]) were “did not respond” and “specifically induced GFP expression”, respectively.

With `C[C@]12CC[C@H](O)C[C@H]1CC[C@@H]1[C@@H]2CC[C@]2(C)[C@@H](c3ccc(=O)oc3)C[C@H]3O[C@]132` [Bufogenin], the “GFP expression, P53 cell line” value in data set [4] is listed as “increased”. In data set [2], the “Toxic” value is “Common”; the “active (increased GFP intensity) for all Hepa-ToxMOA cell lines (Fig. 3d)” value (“active (increased GFP intensity)” below) is reported as “commonly active”; the “sum of activity scores compared between metabolic activation and non-metabolic conditions” value is recorded as “consistently active regardless of metabolic activation”. Also, in data set [3] (setting [8]), the “GFP expression, AP1 cell line” value is “did not respond”. Also, in data set [3] (setting [9]), the “GFP expression, AP1 cell line” value is reported as “specifically induced GFP expression”.

With `CC(=O)O[C@H]1[C@H]2O[C@]23[C@@H]2CC[C@@H]4C[C@@H](O)CC[C@]4(C)[C@H]2CC[C@]3(C)[C@H]1c1ccc(=O)oc1` [Cinobufagin], the “GFP expression, P53 cell line” value in data set [4] is “increased”. Besides, in data set [5], the “substrate of CYP3A4” value is reported as “substrates”. Also, in data set [2], the “Toxic” value is listed as “Common”; the “active (increased GFP intensity)” value was “commonly active”; the “sum of activity scores compared between metabolic activation and non-metabolic conditions” value was “consistently active regardless of metabolic activation”. For the same compound, in data set [6], the “substrate of CYP3A5” value is listed as “substrates”.

On to `C[C@]12CC[C@H](O)C[C@H]1CC[C@@H]1[C@@H]2[C@H](O)C[C@]2(C)[C@@H](c3ccc(=O)oc3)CC[C@]12O` [Gamabufotalin], for which the “GFP expression, P53 cell line” value in data set [4] was “increased”. The “sum of activity scores compared between metabolic activation and non-metabolic conditions” value in data set [2] is reported as “more active without metabolic activation”. The “Toxic” value in data set [2] (human) was “S9- only”.

For `COc1cc2c3c(c1OC)-c1ccccc1C[C@H]3NCC2` [N-nornuciferine], in data set [4], the “GFP expression, P53 cell line” value is given as “no change” and the “increase of GFP expression, P53 cell line” value is “up to 1.5 fold”. Also, in data set [2], the “Toxic” value is listed as “Common”; the “active (increased GFP intensity)” value is reported as “commonly active”; the “sum of activity scores compared between metabolic activation and non-metabolic conditions” value is “consistently active regardless of metabolic activation”. Moreover, in data set [7], the “GFP expression, Nrf2 cell line” value was “induced GFP expression”. Besides, the “GFP expression, NF-κB cell line” value in data set [1] is listed as “increased GFP expression”.

For `COc1cc([C@@H]2c3cc4c(cc3[C@H](O)[C@H]3COC(=O)[C@H]23)OCO4)cc(OC)c1OC` [Podophyllotoxin, reference compound], in data set [2], the “Toxic” value is recorded as “Common”; the “sum of activity scores compared between metabolic activation and non-metabolic conditions” value is “consistently active regardless of metabolic activation”. Also, in data set [3] (setting [8]), the “GFP expression, AP1 cell line” value is “did not respond”. In data set [3] (setting [9]), the “GFP expression, AP1 cell line” value is “specifically induced GFP expression”.
